According to patent US10344019B2 (priority 2010, dated 2019):
Read-outs that look alike come from different tables or passages of the source.

Legend:
Test in all cases: microbe, parasite or virus in culture
Assay type in all cases: cell-based
[1] = test system: HCV 1a RLuc cells (dicistronic genotype 1a H77 replicon, RLuc reporter); details: genotype 1a H77 replicon, RLuc reporter, read-out: 1a
Procedure: (§1) Evaluation of cell-based anti-HCV activity: Antiviral potency (EC50) was determined using a Renilla luciferase (RLuc)-based HCV replicon reporter assay. To perform the assay for genotype 1 and 2a JFH-1, HCV 1b RLuc cells (harboring a dicistronic genotype 1b Con1 replicon that encodes a RLuc reporter), or HCV 1a RLuc cells (harboring a dicistronic genotype 1a H77 replicon that encodes a RLuc reporter), or HCV 2a JFH-1 Rluc cells (harboring a dicistronic genotype 2a JFH-1 replicon that encodes a RLuc reporter) were dispensed into 384-well plates. To perform the assay for genotype 2a (with M31 present) or 2b, HCV 2a Rluc or 2b Rluc cells (both with M31 present) harboring a dicistronic NS5A chimeric genotype 2a JFH-1 replicon that encodes a RLuc reporter and either genotype 2a J6 strain NS5A gene or genotype 2b MD2b-1 NS5A gene (based on Los Alamos HCV database isolates, both with M31 present) respectively, were dispensed into 384-well plates. To perform the assay for genotype 3 and 4, HCV 3a RLuc or 4a Rluc cells harboring a dicistronic NS5A chimeric genotype 1b Con1 replicon that encodes a RLuc reporter and either a consensus genotype 3a NS5A gene or genotype 4a NS5A gene (based on Los Alamos HCV database isolates) respectively, were dispensed into 384-well plates. Compounds were re-suspended in DMSO at a concentration of 10 mM and serially diluted in DMSO either manually or using an automated pipeting instrument. Serially diluted compounds were mixed with cell culture media and added to the seeded cells. […] 72 hours later, cells were lysed and Renilla luciferase activity quantified as recommended by the manufacturer (Promega-Madison, Wis.). Non-linear regression was performed to calculate EC50 values.

[2] = test system: HCV 1b RLuc cells (dicistronic genotype 1b Con1 replicon, RLuc reporter)
Procedure: as §1

[3] = test system: HCV 2a JFH-1 Rluc cells (dicistronic genotype 2a JFH-1 replicon, RLuc reporter); details: genotype 2a JFH-1 replicon, RLuc reporter, read-out: 2a JFH
Procedure: as §1

[4] = test system: HCV 3a RLuc cells (NS5A chimeric genotype 1b Con1 replicon with consensus genotype 3a NS5A gene)
Procedure: as §1

[5] = Hepatitis C virus, read-out: 1b (nM)
[6] = Hepatitis C virus, read-out: 3a, genotype 3a NS5A chimeric 1b Con1 replicon

Row | SMILES | EC50 ([1]; Hepatitis C virus) | EC50 [2, 5] | EC50 ([3]; Hepatitis C virus) | EC50 [4, 6] | EC50 [1] | EC50 ([2]; read-out: 1b) | EC50 [3] | EC50 ([4]; read-out: 3a, genotype 3a NS5A chimeric 1b Con1 replicon)
1 | COC(=O)N[C@H](C(=O)N1CCC[C@H]1c1ncc(-c2ccc3cc(-c4ccc5c(c4)OCc4nc([C@@H]6CCCN6C(=O)[C@H](NC(=O)OC)c6ccccc6)[nH]c4-5)ccc3c2)[nH]1)C(C)C [Example 172] | 1 to 999 pM | 0.011 nM | 1 to 999 pM | 1 to 990 pM | – | – | – | –
2 | COC(=O)N[C@H](C(=O)N1CCC[C@H]1c1ncc(-c2ccc3cc(-c4ccc5c(ccc6nc([C@@H]7CCCN7C(=O)[C@H](NC(=O)OC)c7ccccc7)[nH]c65)c4)ccc3c2)[nH]1)C1CCOCC1 [Example 173] | 1 to 999 pM | 0.024 nM | 1 to 999 pM | 1 to 990 pM | – | – | – | –
3 | COC(=O)N[C@H](C(=O)N1CCC[C@H]1c1nc2c([nH]1)-c1ccc(-c3ccc4cc(-c5cnc([C@@H]6CCCN6C(=O)[C@H](NC(=O)OC)c6ccccc6)[nH]5)ccc4c3)cc1CC2)C1CCOCC1 [Example 174] | – | – | – | 1 to 990 pM | 1 to 999 pM | 0.015 nM | 1 to 999 pM | –
4 | COC(=O)N[C@H](C(=O)N1CCC[C@H]1c1nc2ccc3cc(-c4ccc5cc(-c6cnc([C@@H]7CCCN7C(=O)[C@H](NC(=O)OC)c7ccccc7)[nH]6)ccc5c4)ccc3c2[nH]1)C1CCOCC1 [Example 175] | 1 to 999 pM | 0.011 nM | 1 to 999 pM | 1 to 990 pM | – | – | – | –
5 | COC(=O)N[C@H](C(=O)N1CCC[C@H]1c1nc2c([nH]1)COc1cc(-c3ccc4cc(-c5c[nH]c([C@@H]6CCCN6C(=O)[C@H](NC(=O)OC)c6ccccc6)n5)ccc4c3)ccc1-2)C(C)C [Example 176] | 1 to 999 pM | 0.006 nM | 1 to 999 pM | 1 to 990 pM | – | – | – | –
6 | COC(=O)N[C@H](C(=O)N1CCC[C@H]1c1nc(-c2ccc(-c3ccc4cc(C5=CNC([C@@H]6CCCN6C(=O)[C@H](NC(=O)OC)c6ccccc6)N5)ccc4c3)cc2)c[nH]1)C1CCOCC1 (stereo partly shown) [Example 178] | 1 to 999 pM | 0.024 nM | 1 to 999 pM | 1 to 990 pM | – | – | – | –
7 | COC(=O)N[C@H](C(=O)N1CCC[C@H]1c1nc(-c2ccc3cc(-c4ccc(-c5c[nH]c([C@@H]6CCCN6C(=O)[C@@H](c6ccccc6)N(C6CC6)C6CC6)n5)cc4)ccc3c2)c[nH]1)C(C)C [Example 179] | 1000 to 44000 pM | 0.041 nM | 1000 to 44000 pM | > 5000 pM | – | – | – | –
8 | COC(=O)N[C@H](C(=O)N1CCC[C@H]1c1ncc(-c2ccc3c(c2)CCc2cc(-c4cnc([C@@H]5CCCN5C(=O)[C@H](NC(=O)OC)c5ccccc5)[nH]4)ccc2-3)[nH]1)C(C)C [Example 180] | 1 to 999 pM | 0.007 nM | 1 to 999 pM | 1 to 990 pM | – | – | – | –
9 | COC(=O)N[C@H](C(=O)N1CCC[C@H]1c1nc2c([nH]1)COc1cc(-c3ccc4cc(-c5c[nH]c([C@@H]6CCCN6C(=O)[C@@H](c6ccccc6)N(C)C)n5)ccc4c3)ccc1-2)C1CCOCC1 [Example 182] | 1 to 999 pM | 0.05 nM | 1 to 999 pM | 1 to 990 pM | – | – | – | –
10 | COC(=O)NC(C(=O)N1CCC[C@H]1c1ncc(-c2ccc(-c3ccc4cc(-c5cnc([C@@H]6CCCN6C(=O)[C@@H](NC(=O)OC)C(C)C)[nH]5)ccc4c3)cc2)[nH]1)c1ccccn1 (stereo partly shown) [Example 183] | 1 to 999 pM | 0.013 nM | 1 to 999 pM | 1000 to 4990 pM | – | – | – | –
11 | COC(=O)N[C@H](C(=O)N1C[C@H](C)C[C@H]1c1ncc(-c2ccc3cc(-c4ccc(-c5cnc([C@@H]6CCCN6C(=O)[C@H](NC(=O)OC)c6cccc(C)c6)[nH]5)cc4)ccc3c2)[nH]1)C(C)C [Example 184] | 1 to 999 pM | 0.009 nM | 1 to 999 pM | 1 to 990 pM | – | – | – | –
12 | COC(=O)N[C@H](C(=O)N1CCC[C@H]1c1ncc(-c2ccc3cc(-c4ccc(-c5cnc([C@@H]6CCCN6C(=O)[C@H](NC(=O)OC)c6cccc(PC)c6)[nH]5)cc4)ccc3c2)[nH]1)C(C)C (stereo partly shown) [Example 185] | 1000 to 44000 pM | 0.008 nM | 1 to 999 pM | 1 to 990 pM | – | – | – | –
13 | CCC(=O)N[C@@H](C(=O)N1CCC[C@H]1c1ncc(-c2ccc(-c3ccc4cc(-c5cnc([C@@H]6CCCN6C(=O)[C@@H](NC(=O)OC)C(C)C)[nH]5)ccc4c3)cc2)[nH]1)c1ccccc1 [Example 187] | 1 to 999 pM | 0.007 nM | 1 to 999 pM | 1 to 990 pM | – | – | – | –
14 | COC(=O)N[C@H](C(=O)N1CCC[C@H]1c1ncc(-c2ccc3cc(-c4ccc(-c5cnc([C@@H]6C[C@@H](C)CN6C(=O)[C@H](NC(=O)OC)c6ccccc6)[nH]5)cc4)ccc3c2)[nH]1)C1CCOCC1 [Example 188] | 1 to 999 pM | 0.012 nM | 1 to 999 pM | 1 to 990 pM | – | – | – | –
15 | COC(=O)N[C@H](C(=O)N1CCC[C@H]1c1ncc(-c2ccc3c(c2)CCc2cc(-c4ccc5nc([C@@H]6CCCN6C(=O)[C@H](NC(=O)OC)c6ccccc6)[nH]c5c4)ccc2-3)[nH]1)C(C)C [Example 189] | 1 to 999 pM | 0.006 nM | 1 to 999 pM | 1 to 990 pM | – | – | – | –
16 | COC(=O)N[C@H](C(=O)N1CCC[C@H]1c1ncc(-c2ccc3cc(-c4ccc(-c5cnc([C@@H]6CCCN6C(=O)C6(NC(=O)OC)Cc7ccccc7C6)[nH]5)cc4)ccc3c2)[nH]1)C(C)C [Example 191] | 1000 to 44000 pM | 0.253 nM | > 44000 pM | > 5000 pM | – | – | – | –
17 | COC(=O)N[C@H](C(=O)N1CCC[C@H]1c1ncc(-c2ccc(-c3ccc(-c4ccc(-c5cnc([C@@H]6CCCN6C(=O)[C@H](NC(=O)OC)c6ccccc6)[nH]5)cc4)cc3)cc2)[nH]1)C(C)C [Example 192] | 1 to 999 pM | 0.004 nM | 1 to 999 pM | 1 to 990 pM | – | – | – | –
18 | COC(=O)N[C@H](C(=O)N1CCC[C@H]1c1ncc(-c2ccc(-c3ccc(-c4ccc(-c5cnc([C@@H]6CCCN6C(=O)[C@H](NC(=O)OC)c6ccccc6)[nH]5)cc4)cc3)cc2)[nH]1)C(C)C [Example 193] | – | – | – | – | 1 to 999 pM | 0.005 nM | 1 to 999 pM | 1 to 990 pM
19 | COC(=O)NC(C(=O)N1CCC[C@H]1c1ncc(-c2ccc3c(c2)C(F)(F)c2cc(-c4ccc(-c5cnc([C@@H]6CCCN6C(=O)[C@H](NC(=O)OC)c6ccccc6)[nH]5)cc4)ccc2-3)[nH]1)C(C)C (stereo partly shown) [Example 194] | 1000 to 44000 pM | 0.01 nM | 1000 to 44000 pM | 1000 to 4990 pM | – | – | – | –
20 | COC(=O)N[C@H](C(=O)N1CCC[C@H]1c1nc2c([nH]1)-c1ccc(-c3ccc4cc(-c5cnc([C@@H]6CCCN6C(=O)[C@@H](NC(=O)OC)C6CCOCC6)[nH]5)ccc4c3)cc1CC2)C(C)C [Example 209] | 1 to 999 pM | 0.014 nM | 1 to 999 pM | 1 to 990 pM | – | – | – | –
21 | COC(=O)N[C@H](C(=O)N1CCC[C@H]1c1nc2c([nH]1)-c1ccc(-c3ccc4cc(-c5cnc([C@@H]6CCCN6C(=O)[C@H](NC(=O)OC)c6ccccc6)[nH]5)ccc4c3)cc1CC2)C(C)C [Example 210] | 1 to 999 pM | 0.008 nM | 1 to 999 pM | 1 to 990 pM | – | – | – | –
22 | COC(=O)N[C@H](C(=O)N1CCC[C@H]1c1nc2c([nH]1)-c1ccc(-c3ccc4cc(-c5cnc([C@@H]6COCCN6C(=O)[C@H](NC(=O)OC)c6ccccc6)[nH]5)ccc4c3)cc1CC2)C(C)C [Example 211] | 1 to 999 pM | 0.009 nM | 1000 to 44000 pM | 1000 to 4990 pM | – | – | – | –
23 | COC(=O)N[C@H](C(=O)N1CCC[C@H]1c1ncc(-c2ccc3cc(-c4ccc(-c5cnc([C@@H]6CCCN6C(=O)[C@H](NC(=O)CC6CCOCC6)c6ccccc6)[nH]5)cc4)ccc3c2)[nH]1)C(C)C [Example 212] | 1 to 999 pM | 0.018 nM | 1 to 999 pM | 1 to 990 pM | – | – | – | –
24 | COC(=O)N[C@@H](CC1CCOCC1)C(=O)N1CCC[C@H]1c1ncc(-c2ccc3cc(-c4ccc(-c5cnc([C@@H]6CCCN6C(=O)[C@H](NC(=O)OC)c6ccccc6)[nH]5)cc4)ccc3c2)[nH]1 [Example 213] | 1 to 999 pM | 0.03 nM | 1 to 999 pM | 1 to 990 pM | – | – | – | –
25 | COC(=O)NC(C(=O)N1C[C@H](C)C[C@H]1c1ncc(-c2ccc(-c3ccc4cc(-c5cnc([C@@H]6CCCN6C(=O)[C@@H](NC(=O)OC)C6CCOCC6)[nH]5)ccc4c3)cc2)[nH]1)c1cccnc1 (stereo partly shown) [Example 214] | 1 to 999 pM | 0.06 nM | 1 to 999 pM | 1 to 990 pM | – | – | – | –
